Legend:
Assay in all cases: Kinase Profiler 10 μM panel
Wee1(h) = Wee1(h) (Homo sapiens (Human), UniProt P30291)
Method: (§1) In vitro kinase assays were conducted using Kinase Profiler services provided by Eurofins. The experimental method was as follows: the small molecule compound to be tested (0.001-10 μM), the protein kinase to be tested were incubated with a buffer containing substrate, 10 mM magnesium acetate, and [γ-^33P-ATP], the reaction was started by adding Mg\TPmix, after incubation for a period of time at room temperature, a 3% phosphate solution was added to the buffer to stop the reaction. Subsequently, 10 μL of the reaction mixture was quantitatively pipetted onto P30 filter paper, which was washed three times with 75 mM phosphate solution and then once with methanol. The P30 filter paper was air-dried and scintillation fluid was added for scintillation counting.

MSK2(h) = MSK2(h) (Homo sapiens (Human), UniProt O75676)
Method: as §1

[1] = target: PI3 Kinase (p110a(E542K)/p85a)(m) (Mus musculus (Mouse), UniProt P42337, E542K)
Method: as §1

BrSK1(h) = BrSK1(h) (Homo sapiens (Human), UniProt Q8TDC3)
Method: as §1

Itk(h) = Itk(h) (Homo sapiens (Human), UniProt Q08881)
Method: as §1

SIK3(h) = SIK3(h) (Homo sapiens (Human), UniProt Q9Y2K2)
Method: as §1

LIMK2(h) = LIMK2(h) (Homo sapiens (Human), UniProt P53671)
Method: as §1

Plk4(h) = Plk4(h) (Homo sapiens (Human), UniProt O00444)
Method: as §1

Lck(h) = Lck(h) (Homo sapiens (Human), UniProt P06239)
Method: as §1

PAK4(h) = PAK4(h) (Homo sapiens (Human), UniProt O96013)
Sequence of PAK4(h) (O96013 whole entry): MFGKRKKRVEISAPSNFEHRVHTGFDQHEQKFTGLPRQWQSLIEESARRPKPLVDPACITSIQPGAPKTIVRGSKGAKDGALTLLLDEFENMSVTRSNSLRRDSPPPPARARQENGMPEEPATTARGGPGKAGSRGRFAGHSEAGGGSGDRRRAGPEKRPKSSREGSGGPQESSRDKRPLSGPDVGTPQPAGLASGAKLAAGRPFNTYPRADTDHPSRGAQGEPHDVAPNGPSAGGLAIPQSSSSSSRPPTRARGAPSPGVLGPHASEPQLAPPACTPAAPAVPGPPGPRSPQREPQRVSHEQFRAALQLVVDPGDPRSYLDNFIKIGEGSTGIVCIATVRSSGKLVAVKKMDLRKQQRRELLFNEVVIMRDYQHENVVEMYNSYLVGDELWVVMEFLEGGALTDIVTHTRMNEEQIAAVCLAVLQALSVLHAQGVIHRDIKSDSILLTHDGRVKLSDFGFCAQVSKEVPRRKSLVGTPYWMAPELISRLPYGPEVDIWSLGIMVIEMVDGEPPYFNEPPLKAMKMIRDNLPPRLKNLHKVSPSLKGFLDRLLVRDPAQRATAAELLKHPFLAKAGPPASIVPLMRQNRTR
Method: as §1

Rsk1(h) = Rsk1(h) (Homo sapiens (Human), UniProt Q15418)
Method: as §1

JAK1(h) = JAK1(h) (Homo sapiens (Human), UniProt P23458)
Method: as §1

B-Raf(h) = B-Raf(h) (Homo sapiens (Human), UniProt P15056)
Method: as §1

PAK1(h) = PAK1(h) (Homo sapiens (Human), UniProt Q13153)
Method: as §1

LOK(h) = LOK(h) (Homo sapiens (Human), UniProt O94804)
Method: as §1

Ros(h) = Ros(h) (Homo sapiens (Human), UniProt P08922)
Method: as §1

TLK1(h) = TLK1(h) (Homo sapiens (Human), UniProt Q9UKI8)
Method: as §1

PhKγ2(h) = PhKγ2(h) (Homo sapiens (Human), UniProt P15735)
Method: as §1

Fms(Y969C)(h) = Fms(Y969C)(h) (Homo sapiens (Human), UniProt P07333, Y969C)
Sequence of Fms(Y969C)(h) (P07333 20-972 Y969C): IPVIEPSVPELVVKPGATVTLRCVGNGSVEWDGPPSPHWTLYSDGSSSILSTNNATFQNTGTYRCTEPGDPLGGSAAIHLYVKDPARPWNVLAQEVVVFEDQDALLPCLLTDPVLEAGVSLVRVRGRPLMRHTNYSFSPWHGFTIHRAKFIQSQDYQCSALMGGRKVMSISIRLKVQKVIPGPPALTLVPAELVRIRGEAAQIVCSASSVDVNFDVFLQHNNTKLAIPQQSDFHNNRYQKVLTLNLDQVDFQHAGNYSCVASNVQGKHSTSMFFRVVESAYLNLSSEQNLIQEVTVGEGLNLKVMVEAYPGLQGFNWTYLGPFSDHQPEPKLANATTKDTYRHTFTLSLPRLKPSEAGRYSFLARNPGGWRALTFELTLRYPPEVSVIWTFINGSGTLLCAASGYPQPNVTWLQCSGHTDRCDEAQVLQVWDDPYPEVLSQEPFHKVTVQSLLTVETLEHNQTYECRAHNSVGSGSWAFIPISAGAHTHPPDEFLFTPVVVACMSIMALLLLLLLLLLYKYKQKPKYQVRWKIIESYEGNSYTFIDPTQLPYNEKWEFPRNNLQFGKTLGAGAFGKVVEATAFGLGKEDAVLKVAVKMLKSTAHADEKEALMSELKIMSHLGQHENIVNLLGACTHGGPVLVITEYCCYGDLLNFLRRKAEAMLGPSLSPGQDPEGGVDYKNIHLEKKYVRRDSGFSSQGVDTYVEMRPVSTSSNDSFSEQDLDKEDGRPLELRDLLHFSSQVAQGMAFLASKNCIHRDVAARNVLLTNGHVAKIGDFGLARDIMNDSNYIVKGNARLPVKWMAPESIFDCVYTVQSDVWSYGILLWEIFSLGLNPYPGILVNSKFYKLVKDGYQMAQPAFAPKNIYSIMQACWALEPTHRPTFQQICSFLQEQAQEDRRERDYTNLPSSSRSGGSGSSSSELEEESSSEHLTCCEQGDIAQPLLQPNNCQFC
Method: as §1

MAP4K3(h) = MAP4K3(h) (Homo sapiens (Human), UniProt Q8IVH8)
Sequence of MAP4K3(h) (Q8IVH8 whole entry): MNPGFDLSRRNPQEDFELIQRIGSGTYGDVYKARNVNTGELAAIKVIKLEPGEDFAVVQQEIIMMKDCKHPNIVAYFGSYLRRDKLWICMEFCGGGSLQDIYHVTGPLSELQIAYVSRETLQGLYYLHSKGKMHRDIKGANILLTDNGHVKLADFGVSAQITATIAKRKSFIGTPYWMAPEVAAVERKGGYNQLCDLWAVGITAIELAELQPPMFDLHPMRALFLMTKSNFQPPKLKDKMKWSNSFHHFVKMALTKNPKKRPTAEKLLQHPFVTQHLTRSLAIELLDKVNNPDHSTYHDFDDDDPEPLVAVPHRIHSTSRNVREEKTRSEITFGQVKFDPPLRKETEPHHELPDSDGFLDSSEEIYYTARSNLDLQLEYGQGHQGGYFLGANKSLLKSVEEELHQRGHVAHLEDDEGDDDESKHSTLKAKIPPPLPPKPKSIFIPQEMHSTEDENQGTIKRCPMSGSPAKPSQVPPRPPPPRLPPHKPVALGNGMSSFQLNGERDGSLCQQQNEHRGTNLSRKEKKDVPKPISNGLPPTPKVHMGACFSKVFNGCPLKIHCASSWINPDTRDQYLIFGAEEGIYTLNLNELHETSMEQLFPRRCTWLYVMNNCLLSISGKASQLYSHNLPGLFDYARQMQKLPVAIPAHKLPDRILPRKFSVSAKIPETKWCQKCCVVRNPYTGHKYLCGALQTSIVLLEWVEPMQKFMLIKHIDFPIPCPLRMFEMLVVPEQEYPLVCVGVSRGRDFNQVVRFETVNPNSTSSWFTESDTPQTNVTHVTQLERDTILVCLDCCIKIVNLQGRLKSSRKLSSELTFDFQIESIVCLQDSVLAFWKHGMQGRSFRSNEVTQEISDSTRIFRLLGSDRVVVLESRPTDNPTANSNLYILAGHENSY
Method: as §1

ALK2(h) = ALK2(h) (Homo sapiens (Human), UniProt Q04771)
Method: as §1

[2] = target: PI3 Kinase (p110d/p85a)(m) (Mus musculus (Mouse), UniProt O35904)
Method: as §1

FGFR1(h) = FGFR1(h) (Homo sapiens (Human), UniProt P11362)
Sequence of FGFR1(h) (P11362 22-822): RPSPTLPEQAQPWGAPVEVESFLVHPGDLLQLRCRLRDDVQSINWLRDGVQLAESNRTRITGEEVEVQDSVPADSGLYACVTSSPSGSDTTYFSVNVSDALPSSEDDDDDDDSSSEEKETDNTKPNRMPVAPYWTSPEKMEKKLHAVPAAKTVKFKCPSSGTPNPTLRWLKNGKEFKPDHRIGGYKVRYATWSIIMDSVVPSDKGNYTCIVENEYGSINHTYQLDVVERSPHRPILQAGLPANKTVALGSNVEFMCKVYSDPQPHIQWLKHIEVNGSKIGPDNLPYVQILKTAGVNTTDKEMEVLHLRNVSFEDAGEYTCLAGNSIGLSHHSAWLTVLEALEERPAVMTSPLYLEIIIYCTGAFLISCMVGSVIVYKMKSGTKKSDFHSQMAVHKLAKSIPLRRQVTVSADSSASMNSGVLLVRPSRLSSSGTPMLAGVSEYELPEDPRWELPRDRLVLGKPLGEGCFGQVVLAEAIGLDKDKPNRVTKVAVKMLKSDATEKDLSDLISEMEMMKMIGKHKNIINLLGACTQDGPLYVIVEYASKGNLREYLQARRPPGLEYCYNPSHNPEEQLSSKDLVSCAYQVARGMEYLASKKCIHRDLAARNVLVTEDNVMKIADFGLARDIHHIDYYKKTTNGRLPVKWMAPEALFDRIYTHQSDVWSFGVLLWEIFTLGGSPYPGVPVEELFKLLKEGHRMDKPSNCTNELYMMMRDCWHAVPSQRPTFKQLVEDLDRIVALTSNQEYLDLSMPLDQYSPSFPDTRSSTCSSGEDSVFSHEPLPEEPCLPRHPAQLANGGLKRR
Method: as §1

MARK3(h) = MARK3(h) (Homo sapiens (Human), UniProt P27448)
Sequence of MARK3(h) (P27448 whole entry): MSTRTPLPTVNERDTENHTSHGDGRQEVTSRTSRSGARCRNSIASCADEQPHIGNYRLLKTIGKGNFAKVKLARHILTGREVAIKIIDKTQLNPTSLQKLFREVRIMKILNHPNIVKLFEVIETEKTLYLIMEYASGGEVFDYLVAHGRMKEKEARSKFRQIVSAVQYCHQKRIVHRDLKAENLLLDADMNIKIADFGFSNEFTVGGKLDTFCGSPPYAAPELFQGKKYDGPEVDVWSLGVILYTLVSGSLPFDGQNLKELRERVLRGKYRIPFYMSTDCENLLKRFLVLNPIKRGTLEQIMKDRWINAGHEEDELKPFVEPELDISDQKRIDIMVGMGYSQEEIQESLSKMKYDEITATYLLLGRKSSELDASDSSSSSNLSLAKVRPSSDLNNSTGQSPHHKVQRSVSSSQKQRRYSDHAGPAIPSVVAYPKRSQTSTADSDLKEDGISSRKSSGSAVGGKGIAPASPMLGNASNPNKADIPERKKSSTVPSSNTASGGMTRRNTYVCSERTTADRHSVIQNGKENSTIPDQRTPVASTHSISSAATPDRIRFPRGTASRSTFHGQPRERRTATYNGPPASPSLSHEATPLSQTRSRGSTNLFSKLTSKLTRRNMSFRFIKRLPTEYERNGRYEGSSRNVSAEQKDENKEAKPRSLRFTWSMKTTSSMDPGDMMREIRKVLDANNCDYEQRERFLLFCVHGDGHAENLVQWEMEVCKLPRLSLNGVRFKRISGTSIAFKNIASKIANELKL
Method: as §1

PRP4(h) = PRP4(h) (Homo sapiens (Human), UniProt Q13523); format: biochemical
Method: as §1

Lck(h) activated = Lck(h) activated (Homo sapiens (Human), UniProt P06239)
Method: as §1

IRE1(h) = IRE1(h) (Homo sapiens (Human), UniProt O75460)
Method: as §1

EGFR(T790M)(h) = EGFR(T790M)(h) (Homo sapiens (Human), UniProt P00533, T790M)
Method: as §1

Aurora-B(h) = Aurora-B(h) (Homo sapiens (Human), UniProt Q96GD4)
Method: as §1

CDK1/cyclinB(h) = CDK1/cyclinB(h) (Homo sapiens (Human), UniProt P06493)
Method: as §1

CK1(y) = system: CK1(y)
Method: as §1

Tie2(Y897S)(h) = Tie2(Y897S)(h) (Homo sapiens (Human), UniProt Q02763, Y897S)
Sequence of Tie2(Y897S)(h) (Q02763 23-1124 Y897S): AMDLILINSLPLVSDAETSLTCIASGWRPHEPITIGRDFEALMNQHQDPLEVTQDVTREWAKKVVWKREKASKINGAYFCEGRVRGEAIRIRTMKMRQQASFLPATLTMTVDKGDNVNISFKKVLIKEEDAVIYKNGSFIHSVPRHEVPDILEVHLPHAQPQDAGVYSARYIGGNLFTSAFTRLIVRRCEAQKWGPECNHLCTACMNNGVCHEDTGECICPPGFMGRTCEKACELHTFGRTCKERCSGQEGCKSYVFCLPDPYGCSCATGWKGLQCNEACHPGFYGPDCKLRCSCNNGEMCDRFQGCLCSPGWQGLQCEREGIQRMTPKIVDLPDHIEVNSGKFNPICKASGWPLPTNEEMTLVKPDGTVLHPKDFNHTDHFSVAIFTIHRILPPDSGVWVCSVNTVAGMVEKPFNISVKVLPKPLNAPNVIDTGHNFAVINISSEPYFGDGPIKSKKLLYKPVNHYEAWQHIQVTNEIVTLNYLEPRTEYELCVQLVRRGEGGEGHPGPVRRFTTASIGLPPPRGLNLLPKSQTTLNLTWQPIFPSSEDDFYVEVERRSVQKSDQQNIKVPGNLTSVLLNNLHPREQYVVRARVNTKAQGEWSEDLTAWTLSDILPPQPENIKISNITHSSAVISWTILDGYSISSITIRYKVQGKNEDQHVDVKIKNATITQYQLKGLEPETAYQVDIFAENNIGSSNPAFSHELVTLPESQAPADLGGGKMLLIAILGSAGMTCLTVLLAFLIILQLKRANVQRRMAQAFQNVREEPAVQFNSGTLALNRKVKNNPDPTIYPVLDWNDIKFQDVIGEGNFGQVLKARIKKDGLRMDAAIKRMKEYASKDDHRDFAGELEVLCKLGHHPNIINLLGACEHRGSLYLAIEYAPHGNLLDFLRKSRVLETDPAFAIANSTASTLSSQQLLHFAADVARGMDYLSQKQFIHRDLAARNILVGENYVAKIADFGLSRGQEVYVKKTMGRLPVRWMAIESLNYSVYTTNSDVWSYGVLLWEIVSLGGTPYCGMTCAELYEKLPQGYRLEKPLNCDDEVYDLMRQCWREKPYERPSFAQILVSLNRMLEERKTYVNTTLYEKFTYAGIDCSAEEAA
Method: as §1

HIPK3(h) = HIPK3(h) (Homo sapiens (Human), UniProt Q9H422)
Method: as §1

CDK6/cyclinD3(h) = CDK6/cyclinD3(h) (Homo sapiens (Human), UniProt Q00534)
Method: as §1

C[C@H](NC(=O)c1c[nH]c2ccc(-c3ccc4nc(NC(=O)C5CC5)sc4c3)cc12)c1cccc(F)c1 [Compound 34, (S)-5-(2-(cyclopropanecarboxamido)benzo[d]thiazol-6-yl)-N-(1-(3-fluorophenyl)ethyl)-1H-indole-3-carboxamide]
Inhibition ratio (Wee1(h)): −1% | Inhibition ratio (MSK2(h)): 23% | Inhibition ratio [1]: 33% | Inhibition ratio (BrSK1(h)): −28% | Inhibition ratio (Itk(h)): 99% | Inhibition ratio (SIK3(h)): 23% | Inhibition ratio (LIMK2(h)): 44% | Inhibition ratio (Plk4(h)): 14% | Inhibition ratio (Lck(h)): 65% | Inhibition ratio (PAK4(h)): 10% | Inhibition ratio (Rsk1(h)): 37% | Inhibition ratio (JAK1(h)): 26% | Inhibition ratio (B-Raf(h)): 20% | Inhibition ratio (PAK1(h)): 4% | Inhibition ratio (LOK(h)): 85% | Inhibition ratio (Ros(h)): 31% | Inhibition ratio (TLK1(h)): 19% | Inhibition ratio (PhKγ2(h)): 5% | Inhibition ratio (Fms(Y969C)(h)): 18% | Inhibition ratio (MAP4K3(h)): 95% | Inhibition ratio (ALK2(h)): 64% | Inhibition ratio [2]: 31% | Inhibition ratio (FGFR1(h)): 72% | Inhibition ratio (MARK3(h)): 0% | Inhibition ratio (PRP4(h)): 4% | Inhibition ratio (Lck(h) activated): 76% | Inhibition ratio (IRE1(h)): 16% | Inhibition ratio (EGFR(T790M)(h)): 40% | Inhibition ratio (Aurora-B(h)): 21% | Inhibition ratio (CDK1/cyclinB(h)): 13% | Inhibition ratio (CK1(y)): 25% | Inhibition ratio (Tie2(Y897S)(h)): 88% | Inhibition ratio (HIPK3(h)): 79% | Inhibition ratio (CDK6/cyclinD3(h)): 6%

C[C@H](NC(=O)c1cn(C)c2ccc(-c3ccn4nc(NC(=O)C5CC5)nc4c3)cc12)c1cccc(F)c1 [Compound 94, (S)-5-(2-(cyclopropanecarboxamido)-[1,2,4]triazolo[1,5-a]pyridin-7-yl)-N-(1-(3-fluorophenyl)ethyl)-1-methyl-1H-indole-3-carboxamide]
Inhibition ratio/% (Wee1(h)): 1% | Inhibition ratio/% (MSK2(h)): 9% | Inhibition ratio/% [1]: −1% | Inhibition ratio/% (BrSK1(h)): 31% | Inhibition ratio/% (Itk(h)): 92% | Inhibition ratio/% (SIK3(h)): 47% | Inhibition ratio/% (LIMK2(h)): 19% | Inhibition ratio/% (Plk4(h)): 15% | Inhibition ratio/% (Lck(h)): 44% | Inhibition ratio/% (PAK4(h)): 5% | Inhibition ratio/% (Rsk1(h)): 41% | Inhibition ratio/% (JAK1(h)): 52% | Inhibition ratio/% (B-Raf(h)): −5% | Inhibition ratio/% (PAK1(h)): 18% | Inhibition ratio/% (LOK(h)): 25% | Inhibition ratio/% (Ros(h)): −18% | Inhibition ratio/% (TLK1(h)): 11% | Inhibition ratio/% (PhKγ2(h)): 48% | Inhibition ratio/% (Fms(Y969C)(h)): 13% | Inhibition ratio/% (MAP4K3(h)): 28% | Inhibition ratio/% (ALK2(h)): −17% | Inhibition ratio/% [2]: 44% | Inhibition ratio/% (FGFR1(h)): 70% | Inhibition ratio/% (MARK3(h)): −3% | Inhibition ratio/% (PRP4(h)): 5% | Inhibition ratio/% (Lck(h) activated): 46% | Inhibition ratio/% (IRE1(h)): 22% | Inhibition ratio/% (EGFR(T790M)(h)): −10% | Inhibition ratio/% (Aurora-B(h)): 25% | Inhibition ratio/% (CDK1/cyclinB(h)): 78% | Inhibition ratio/% (CK1(y)): 30% | Inhibition ratio/% (Tie2(Y897S)(h)): 18% | Inhibition ratio/% (HIPK3(h)): 62% | Inhibition ratio/% (CDK6/cyclinD3(h)): 80%

From patent US20230365546A1, “5-SUBSTITUTED INDOLE 3-AMIDE DERIVATIVES, PREPARATION METHOD AND USE THEREOF” (ORIGIANT PHARMACEUTICAL CO., LTD, priority 2020, published 2023)
